Reference: patent US20240325550A1, “Therapeutic Compounds for Inhibiting and Reducing the Expression of Cell Surface Proteins” (KIST (Korea Institute of Science and Technology), priority 2023, published 2024)
{DBCO} = dibenzocyclooctyne group for click conjugation; d = 2'-deoxy (DNA); r = 2'-OH (RNA)

What was measured:
CT26.CL25 cells = assay: Internalization by CT26.CL25 cells (Cy5.5 fluorescence microscopy); type: cell-based; conditions: 9 hours, 18 hours and 24 hours of incubation
Protocol: CT26.CL25 cells were incubated, as described in Example 2, with either the PD-L1 binding peptide-siRNA conjugate of Example 1 or the unconjugated Cy5.5-labeled siRNA of Example 1. After 9 hours, 18 hours, and 24 hours of incubation, cells were then fixated with 4% paraformaldehyde (PFA) for 10 min and washed twice with DPBS.
(§1) Nuclei were stained using Hoechst 33342 (blue of FIGS. 3 and 4) and the cells were examined for Cy5.5 fluorescence (red of FIGS. 3 and 4).

B16F10 cells = assay: Internalization by B16F10 cells (Cy5.5 fluorescence microscopy); type: cell-based; conditions: 18 hours and 24 hours of incubation
Protocol: B16F10 cells were also incubated with either the PD-L1 binding peptide-siRNA conjugate of Example 1 or the unconjugated Cy5.5-labeled siRNA of Example 1 and similarly fixated after 18 hours and 24 hours of incubation.
as §1

[1] = molecular target: T1, PD-L1 expressed by CT26.CL25 cells (Mus musculus, UniProt Q9EP73); assay: Binding of Cy5.5-labeled conjugate to PD-L1 on CT26.CL25 cells (fluorescence microscopy); conditions: 200 nM, 30 minutes at 4° C., no antibody pre-treatment
T1 construct: PD-L1 expressed by CT26.CL25 cells; endogenous in cells; host or cells: CT26.CL25 cells
T1 sequence (Q9EP73 19-290): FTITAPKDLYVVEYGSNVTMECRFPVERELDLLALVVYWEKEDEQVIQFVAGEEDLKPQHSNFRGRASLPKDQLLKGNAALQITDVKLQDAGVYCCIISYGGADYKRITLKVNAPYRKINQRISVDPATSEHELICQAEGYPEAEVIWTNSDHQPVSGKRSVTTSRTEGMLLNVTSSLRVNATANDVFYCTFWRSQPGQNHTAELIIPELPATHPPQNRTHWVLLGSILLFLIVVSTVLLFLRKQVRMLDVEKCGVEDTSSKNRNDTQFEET
Protocol: We tested whether the PD-L1 binding peptide-siRNA conjugate of Example 1 was able to specifically bind PD-L1 expressed by CT26.CL25 cells by incubating the PD-L1 binding peptide-siRNA conjugate of Example 1 with CT26.CL25 cells that either had, or had not, been pre-treated with an anti-PD-L1 antibody. As a control, CT26.CL25 cells were incubated with the unconjugated anti-PD-L1 siRNA of Example 1.
Here, 2 ml of CT26.CL25 cells (at 5×10^6 cells/ml) were seeded into each of four dishes. 24 hours after seeding, and one hour before treatment with the conjugate of Example 1, one dish was pre-treated with 1 ml of anti-PD-L1 antibody (InVivoMAb anti-mouse PD-L1, BioXCell Cat. #BE0101) at 1 mg/ml. After incubation with the antibody, the pre-treated cells were incubated with 1 ml (200 nM) of the conjugate of Example 1 for 30 minutes at 4° C. At the same time, a dish that had not been pre-treated was similarly incubated with the conjugate of Example 1, and another dish that had not been pre-treated was similarly incubated with the unconjugated anti-PD-L1 siRNA of Example 1.
Cells were then fixated with 4% paraformaldehyde (PFA) for 10 min, then washed twice with DPBS. Nuclei were then stained using Hoechst 33342 (blue of FIG. 2) and the cells were examined for Cy5.5 fluorescence (red of FIG. 2).

[2] = molecular target: T2, EGFR expressed by A549 cells (Homo sapiens, UniProt P00533); assay: Binding of YOYO-1-stained conjugate to EGFR on A549 cells (microscopy); conditions: 200 nM, 30 minutes
T2 construct: EGFR expressed by A549 cells; endogenous in cells; host or cells: A549 cells
Protocol: We tested whether the EGFR binding peptide-siRNA conjugate of Example 6 was able to specifically bind EGFR expressed by A549 cells by incubating the EGFR binding peptide-siRNA conjugate of Example 6 with A549 cells. As a control, A549 cells were incubated with the unconjugated anti-EGFR siRNA of Example 6.
A549 cells were treated with 200 nM of either the EGFR-binding peptide-conjugated siRNA of Example 6 or the unconjugated EGFR siRNA of Example 6, each stained with YOYO-1, a nucleic acid staining dye.
After 30 minutes, cells were then fixated with 4% paraformaldehyde (PFA) for 10 minutes, then washed twice with DPBS. Nuclei were then stained using Hoechst 33342 and the cells were examined for YOYO-1 staining.

Substance | Internalization (Cy5.5 fluorescence) (CT26.CL25 cells) | Internalization (Cy5.5 fluorescence) (B16F10 cells) | Cy5.5 fluorescence on cells (binding to cell-surface PD-L1) [1] | Cy5.5 fluorescence on cells (binding to cell-surface PD-L1) ([1]; listed as unconjugated Cy5.5-labeled siRNA) | YOYO-1 staining on cells (binding to EGFR) [2]
unconjugated Cy5.5-labeled siRNA of Example 1: anti-PD-L1 siRNA: sense GACUCAAGAUGGAACCUGAdTdT-[DBCO] (SEQ ID NO:12), antisense dTdTCUGAGUUCUACCUUGGACU-Cy5.5 (SEQ ID NO:13) (sense GACUCAAGAUGGAACCUGATT; antisense TTCUGAGUUCUACCUUGGACU; dTdT overhangs, DBCO, Cy5.5 label, chemistry not fully specified; one strand is listed 3' to 5') [reference compound] | significantly less Cy5.5 fluorescence | significantly less Cy5.5 fluorescence | very low levels of Cy5.5 fluorescence | little to no Cy5.5 fluorescence | –
siRNA: anti-EGFR siRNA: sense AUAGGCAUUGGUGAAUUUAAAGAdCdA-[DBCO] (SEQ ID NO:120), antisense UGUCUUUAAAUUCACCAAUGCCUAUGC (SEQ ID NO:121) (sense AUAGGCAUUGGUGAAUUUAAAGACA; sense: sugars from the 5' end r23 d2, 3' {DBCO}, backbone not given here; antisense: RNA, backbone not given here; sense 3' DBCO clicked to azide EGFR-binding peptide) [reference compound] | – | – | – | – | no YOYO-1 staining
